In PMC2756574, “Crystal Structures of Multidrug Binding Protein TtgR in Complex with Antibiotics and Plant Antimicrobials” (Journal of Molecular Biology, 2007):

Key:
TtgR [1] = molecular target: TtgR (Pseudomonas putida, UniProt Q9AIU0, R176G); test: biochemical
TtgR [2] = molecular target: T1, TtgR (Pseudomonas putida, UniProt Q9AIU0); test: isothermal titration calorimetry; format: binding
T1 construct: full-length, ttgR in pET29a+, expressed in E. coli B834(DE3); heparin and gel filtration purification; homodimer; residues about 10-210 seen in crystals

TtgR [3] = molecular target: T1, TtgR; test: X-ray crystal structure of complex; conditions: general binding site, 2 per dimer; co-crystal, 2.4 Å

SMILES	Kd (TtgR [1]) [µM]	Kd (TtgR [2]) [µM]	X-ray crystal structure of complex (TtgR [3])
O=C(CCc1ccc(O)cc1)c1c(O)cc(O)cc1O [phloretin]	9.2 ± 0.5	0.05 ± 0.01	
O=c1c(O)c(-c2ccc(O)c(O)c2)oc2cc(O)cc(O)c12 [quercetin]			Both effectors bind at similar locations to the hydrophobic binding site as tetracycline and chloramphenicol
